Experimental findings from ChEMBL document CHEMBL4622861, “Synthesis and biological evaluation of 6-nitro-1,2,4-triazoloazines containing polyphenol fragments possessing antioxidant and antiviral activity” (Bioorg Med Chem Lett, 2020) are described below.

The source made the active and inactive calls. The calls are words filed in the database; no cut-off is given here.

A short description of series [1]: Cytotoxicity against MDCK cells. The conditions noted are these: dog. The class given is cell-based, Canis lupus familiaris.
The nature of series [2]: Inhibition of M2 proton channel in Influenza A virus (A/Puerto Rico/8/34(H1N1)) infected in MDCK cells assessed as inhibition of viral infection. The class given is cell-based, Influenza A virus (A/Puerto Rico/8/1934(H1N1)).
Series [3] can be described thus: Antioxidant activity in K3[Fe(CN)6]/K4[Fe(CN)6] system by potentiometric method. The series is classed as functional.
For series [4], the system named is M2 proton channel of Influenza A virus. Description: Selectivity index, ratio of CC50 for MDCK cells to IC50 for M2 proton channel in Influenza A virus (A/Puerto Rico/8/34(H1N1) ) infected in MDCK cells assessed as inhibition of viral infection. The series is classed as toxicity, cell-based. As to conditions: dog, read-out: Ratio CC50/IC50.
The test system of series [5] is Influenza A virus. The series is described as follows: Antiviral activity against Influenza A virus (A/Puerto Rico/8/34(H1N1)) infected in MDCK cells assessed as reduction in viral titer at 100 uM measured at 0 to 8 hrs post-infection. The series is classed as functional, organism-based. As to conditions: A/Puerto Rico/8/1934(H1N1).
Series [6] concerns the target Hemagglutinin (Influenza A virus (A/Puerto Rico/8/1934(H1N1))) (UniProt P03452). The series is described as follows: Inhibition of Hemagglutinin in Influenza A virus (A/Puerto Rico/8/34(H1N1)) assessed as reduction in virus-induced agglutination of chicken erythrocytes at 100 uM.
Series [7] concerns Influenza A virus. Description: Antiviral activity against Influenza A virus (A/Puerto Rico/8/34(H1N1)) infected in MDCK cells assessed as reduction in viral titer at 50 uM measured after 4 hrs post-infection. The series is classed as functional, organism-based. As to conditions: A/Puerto Rico/8/1934(H1N1).
Series [8] relates to Influenza A virus. The series is described as follows: Antiviral activity against Influenza A virus (A/Puerto Rico/8/34(H1N1)) infected in MDCK cells assessed as reduction in viral titer at 100 uM measured at 0 to 2 hrs post-infection. The class given is functional, organism-based. As to conditions: A/Puerto Rico/8/1934(H1N1).
Series [9] has as its system Influenza A virus. The series is described as follows: Antiviral activity against Influenza A virus (A/Puerto Rico/8/34(H1N1)) infected in MDCK cells assessed as reduction in viral titer at 100 uM measured after 4 hrs post-infection. The conditions noted are these: A/Puerto Rico/8/1934(H1N1). The series is classed as functional, organism-based.
In series [10] the test system is Influenza A virus. Description: Antiviral activity against Influenza A virus (A/Puerto Rico/8/34(H1N1)) infected in MDCK cells assessed as reduction in viral titer at 50 uM measured at 0 to 8 hrs post-infection. The series is classed as functional, organism-based. The conditions noted are these: A/Puerto Rico/8/1934(H1N1).
Series [11] has as its system Influenza A virus. Description: Antiviral activity against Influenza A virus (A/Puerto Rico/8/34(H1N1)) infected in MDCK cells assessed as reduction in viral titer at 50 uM measured at 0 to 2 hrs post-infection. The series is classed as functional, organism-based. As to conditions: A/Puerto Rico/8/1934(H1N1).
The target of series [12] is Hemagglutinin (Influenza A virus (A/Puerto Rico/8/1934(H1N1))) (UniProt P03452). The series is described as follows: Inhibition of Hemagglutinin in Influenza A virus (A/Puerto Rico/8/34(H1N1)) assessed as reduction in virus-induced agglutination of chicken erythrocytes at 50 uM.
Chain of Hemagglutinin (Influenza A virus (A/Puerto Rico/8/1934(H1N1))) (P03452 whole entry): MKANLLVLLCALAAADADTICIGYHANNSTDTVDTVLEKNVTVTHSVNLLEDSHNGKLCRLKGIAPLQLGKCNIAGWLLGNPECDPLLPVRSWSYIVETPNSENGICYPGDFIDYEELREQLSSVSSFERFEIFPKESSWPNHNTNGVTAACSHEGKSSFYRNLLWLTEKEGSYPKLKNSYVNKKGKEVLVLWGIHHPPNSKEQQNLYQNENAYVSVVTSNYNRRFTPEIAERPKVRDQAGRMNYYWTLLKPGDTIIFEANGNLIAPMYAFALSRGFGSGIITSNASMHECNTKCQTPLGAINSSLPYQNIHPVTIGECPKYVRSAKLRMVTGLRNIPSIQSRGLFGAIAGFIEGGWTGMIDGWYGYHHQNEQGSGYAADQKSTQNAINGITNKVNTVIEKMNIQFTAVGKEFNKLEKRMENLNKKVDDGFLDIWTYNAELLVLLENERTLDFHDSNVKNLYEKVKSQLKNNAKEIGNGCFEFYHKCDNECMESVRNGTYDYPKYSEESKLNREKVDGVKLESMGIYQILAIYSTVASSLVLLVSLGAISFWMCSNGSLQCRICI

The CC50 is the concentration that lowers cell viability or growth by half. A lower CC50 goes with harm at low concentration. In general, IC50 refers to the concentration that inhibits the measured activity by half. `O=[N+]([O-])C1=NNc2ncnn2C1c1ccc(O)cc1O` (configuration not stated) had a CC50 in series [1] of 90 µM. Also, the IC50 in series [2] is 34 µM. Besides, the result in series [3] was inactive. In addition, the selectivity ratio in series [4] came to 3.
As for `O=[N+]([O-])C1=CNc2nc(-c3ccco3)nn2C1`, the CC50 in series [1] stood at 108 µM. Also, in series [2], the 50% inhibitory concentration (IC50) is 9 µM. Also, in series [4], the selectivity ratio turned out to be 13.
Turning to `CSc1nc2n(n1)C(c1ccc(O)cc1O)C([N+](=O)[O-])=NN2` (configuration not stated), half-maximal cytotoxicity in [1] (CC50) was put at 201 µM. Also, the concentration for half-maximal inhibition (IC50) in series [2] amounted to 18 µM. The outcome in [3] was inactive. In series [4], the selectivity ratio is 11.
In turn, `O=[N+]([O-])C1=CNc2nc(-c3ccco3)nn2C1c1ccc(O)cc1O` (configuration not stated) yielded a CC50 in series [1] of 119 µM. Besides, in series [2], the IC50 worked out at 9 µM. Further, the selectivity ratio in series [4] is 14.
The like results for `O=[N+]([O-])C1=NNc2ncnn2C1c1ccc(O)c(O)c1` (configuration not stated) were, in that order, over 1640 µM, 1090 µM and 2.
In turn, `O=[N+]([O-])C1=NNc2ncnn2C1c1c(O)cc(O)cc1O` (configuration not stated) yielded a CC50 in series [1] of 119 µM. In addition, in series [2], the IC50 was found to be 26 µM. Also, in series [4], the selectivity ratio amounted to 5.
The like results for `O=[N+]([O-])C1=CNc2ncnn2C1O` (configuration not stated) were, in that order, 123 µM, 28 µM and 4.
The like results for `O=[N+]([O-])C1=CNc2ncnn2C1c1ccc(O)cc1O` (configuration not stated) were, in that order, over 1090 µM, 167 µM and over 7.
The like results for `O=[N+]([O-])C1=NNc2nc(C(F)(F)F)nn2C1c1c(O)cc(O)cc1O` (configuration not stated) were, in that order, 252 µM, 27 µM and 9.
`O=[N+]([O-])C1=NNc2nc(C(F)(F)F)nn2C1c1ccc(O)cc1O` (configuration not stated) registered a CC50 in series [1] of 108 µM. The concentration for half-maximal inhibition (IC50) in series [2] came to 33 µM. In series [4], the selectivity ratio came out at 3.
The like results for `O=[N+]([O-])C1=CNc2nc(C(F)(F)F)nn2C1O` (configuration not stated) were, in that order, 33 µM, 11 µM and 3.
On the same counts, the results for `CCC(CC)O[C@@H]1C=C(C(=O)O)C[C@H](N)[C@H]1NC(C)=O` [OSELTAMIVIR CARBOXYLATE] are 66 µM, 13 µM and 5.
The like results for `O=[N+]([O-])C1=CNc2nc(C(F)(F)F)nn2C1c1ccc(O)c(O)c1` (configuration not stated) were, in that order, 1200 µM, 21 µM and 57.
In series [1], `O=[N+]([O-])C1=NNc2ncnn2C1c1ccc(O)c(O)c1O` (configuration not stated) yielded a CC50 of 228 µM. For the same compound, the IC50 in [2] amounted to 86 µM. The selectivity ratio in series [4] is 3.
The like results for `O=[N+]([O-])C1=CNc2nc(-c3ccco3)nn2C1c1ccc(O)c(O)c1` (configuration not stated) were, in that order, over 1200 µM, 101 µM and over 12.
In series [1], `CSc1nc2n(n1)C(c1ccc(O)c(O)c1O)C([N+](=O)[O-])=NN2` (configuration not stated) had a cytotoxic concentration (CC50) of 196 µM. For the same compound, the IC50 in series [2] came to 26 µM. In addition, the result in series [3] was inactive. Further, in series [4], the selectivity ratio is 8.
The compound `CSc1nc2n(n1)C(c1c(O)cc(O)cc1O)C([N+](=O)[O-])=NN2` (configuration not stated) returned a half-maximal cytotoxic concentration (CC50) in [1] of 877 µM. For the same compound, in series [2], the half-inhibitory concentration (IC50) turned out to be 23 µM. Also, the selectivity ratio in series [4] was found to be 39.
The like results for `O=[N+]([O-])C1=CNc2nc(-c3ccco3)nn2C1c1c(O)cc(O)cc1O` (configuration not stated) were, in that order, 280 µM, 70 µM and 4.
Consider `O=[N+]([O-])C1=NNc2nc(C(F)(F)F)nn2C1O` (configuration not stated), for which it took 40 µM to reach half-maximal cytotoxicity in series [1] (CC50). In addition, the concentration for half-maximal inhibition (IC50) in series [2] was 11 µM. The selectivity ratio in series [4] turned out to be 4.
The like results for `CSc1nc2n(n1)C(O)C([N+](=O)[O-])=NN2` (configuration not stated) were, in that order, 99 µM, 15 µM and 7.
`O=[N+]([O-])C1=CNc2ncnn2C1c1c(O)cc(O)cc1O` (configuration not stated) had a CC50 in [1] of over 1030 µM. Further, the result in the series with Influenza A virus [5], in the series on Influenza A virus [7] and with Influenza A virus [8] was Active. The inhibition entry in series [6] was “Active”. Besides, the IC50 in series [2] was 20 µM. Further, the selectivity ratio in series [4] was over 51.
`O=[N+]([O-])C1=NNc2nc(C(F)(F)F)nn2C1c1ccc(O)c(O)c1` (configuration not stated) had a CC50 in series [1] of 183 µM. The IC50 in [2] is over 120 µM. For the same compound, the selectivity ratio in series [4] worked out at 2.
Regarding `O=[N+]([O-])C1=CNc2nc(-c3ccco3)nn2C1c1ccc(O)c(O)c1O` (configuration not stated), in [1], the CC50 worked out at 317 µM. Moreover, the IC50 in series [2] is 97 µM. Besides, the selectivity ratio in series [4] stood at 3.
The like results for `O=[N+]([O-])C1=CNc2ncnn2C1c1ccc(O)c(O)c1` (configuration not stated) were, in that order, 368 µM, 42 µM and 9.
On the same counts, the results for `CC(N)C12CC3CC(CC(C3)C1)C2` (configuration not stated) [RIMANTADINE] are over 200 µM, 0.3 µM and over 667.
In the case of `O=[N+]([O-])C1=CNc2nc(C(F)(F)F)nn2C1c1ccc(O)c(O)c1O` (configuration not stated), in [1], half-maximal cytotoxicity (CC50) was put at 373 µM. In addition, in [2], the concentration for half-maximal inhibition (IC50) is 47 µM. For the same compound, the selectivity ratio in [4] was 8.
Consider `CSc1nc2n(n1)C(c1ccc(O)c(O)c1)C([N+](=O)[O-])=NN2` (configuration not stated), for which the 50% cytotoxic concentration (CC50) in [1] was determined as 362 µM. In addition, the result in the series on Influenza A virus [9], with Influenza A virus [10] and in the series with Influenza A virus [11] was Active. For the same compound, the IC50 in series [2] amounted to 44 µM. For the same compound, in series [4], the selectivity ratio was 8. Further, the inhibition result in series [12] is “Active”.
For `O=[N+]([O-])C1=NNc2ncnn2C1O` (configuration not stated), the midpoint of cytotoxicity in series [1], the CC50, lay at 87 µM. For the same compound, the IC50 in series [2] is over 36 µM. The selectivity ratio in series [4] is 2.
In series [1], `O=[N+]([O-])C1=NNc2nc(C(F)(F)F)nn2C1c1ccc(O)c(O)c1O` (configuration not stated) showed a half-maximal cytotoxic concentration (CC50) of 67 µM. The IC50 in series [2] is 10 µM. The selectivity ratio in series [4] came out at 7.
`O=[N+]([O-])C1=CNc2nc(C(F)(F)F)nn2C1c1c(O)cc(O)cc1O` (configuration not stated) registered a CC50 in [1] of 838 µM. The concentration for half-maximal inhibition (IC50) in series [2] amounted to 27 µM. For the same compound, the selectivity ratio in series [4] worked out at 32.
The like results for `O=[N+]([O-])C1=CNc2nc(C(F)(F)F)nn2C1c1ccc(O)cc1O` (configuration not stated) were, in that order, 258 µM, 6 µM and 43.
Regarding `O=[N+]([O-])C1=CNc2ncnn2C1c1ccc(O)c(O)c1O` (configuration not stated), the cytotoxic concentration (CC50) in series [1] was 405 µM. Moreover, in series [2], the IC50 worked out at 595 µM. In addition, in series [4], the selectivity ratio stood at 1.
